Measured values reported in ChEMBL document CHEMBL5532721, “Novel KRAS Inhibitors for Treating Non-Small-Cell Lung Cancer” (ACS Med Chem Lett, 2024).
pIC50: −log10 of the molar value.

What was measured:
[1] = Inhibition of recombinant GMPPNP-loaded KRAS G12D mutant/recombinant GST-tagged RAF1 RBD (unknown origin) interaction preincubated for 20 mins followed by RAF1 RBD addition and measured after 3 hrs by HTRF assay; parameters: species or system Homo sapiens
[2] = Inhibition of recombinant GDP-loaded KRAS G12D mutant/recombinant SOS (unknown origin) interaction preincubated for 20 mins followed by SOS addition and measured after 30 mins by HTRF assay; parameters: species or system Homo sapiens

SMILES	pIC50 [1]	pIC50 [2]
C#Cc1c(F)ccc2cc(O)cc(-c3ncc4c(N5CCCC(O)(C(F)(F)F)C5)nc(OC[C@]56CCC[C@H]5N(C)CCC6)nc4c3F)c12 (some centres not stated)	8.52	8.70
C#Cc1c(F)ccc2cc(O)cc(-c3ccc4c(N5C[C@@H]6C[C@H]5C(=O)N6)nc(OC[C@]56CCC[C@H]5N(C)CCC6)nc4c3F)c12	8.52	8.22
C#Cc1c(F)ccc2cc(O)cc(-c3ncc4c(N5CCCC(C#N)C5)nc(OC[C@@]56CCCN5C[C@H](F)C6)nc4c3F)c12 (some centres not stated)	8.70	8.70

More lines, in order of rising pIC50 [1], values ahead:

pIC50 [1]	pIC50 [2]	SMILES
8.22	8.70	C#Cc1c(F)ccc2cc(O)cc(-c3ncc4c(N5CCCOCC5)nc(OC[C@]56CCC[C@H]5N(CC)CCC6)nc4c3F)c12
8.52	8.30	C#Cc1c(F)ccc2cc(O)cc(-c3ncc4c(N5CCOCC(CO)C5)nc(OC[C@]56CCC[C@H]5N(C)CCC6)nc4c3F)c12 (some centres not stated)
8.70	8.70	C#Cc1c(F)ccc2cc(O)cc(-c3ncc4c(N5CCOCC(CC#N)C5)nc(OC[C@]56CCC[C@H]5N(C)CCC6)nc4c3F)c12 (some centres not stated)
